# pEC50, pKi: −log10 of the molar value.
# Legend:
# Histamine H4 receptor [1] = target: T1, Histamine H4 receptor (Homo sapiens, UniProt Q9H3N8); assay: Agonist activity at human recombinant histamine H4 receptor expressed in SK-N-MC cells assessed as effect on forskolin-stimulated cAMP-mediated reporter gene activity; assay type: functional, cell-based
# Histamine H4 receptor [2] = target: T1, Histamine H4 receptor; assay: Displacement of [3H]histamine from human recombinant histamine H4 receptor
# Histamine H4 receptor [3] = target: T1, Histamine H4 receptor; assay: Antagonist activity at human recombinant histamine H4 receptor expressed in SK-N-MC cells assessed as inhibition of forskolin-stimulated cAMP-mediated reporter gene activity; assay type: functional, cell-based; settings: read-out: pA2 (converted)
Structure (SMILES),pEC50 (Histamine H4 receptor [1]),pKi (Histamine H4 receptor [2]),Kb (Histamine H4 receptor [3]) [nM]
CN[C@H]1CCN(c2cnnc(NC3CCCC3)c2)C1,,6.62,
CCCCNc1nccc(N2CCN(C)CC2)n1,7.04,7.26,
CN1CCN(c2ccnc(N3CCCCC3)c2)CC1,,6.85,
CN1CCN(c2ccnc(NC3CCCC3)c2)CC1,,7.80,
CCCCNc1cc(N2CC[C@@H](NC)C2)ccn1,7.32,8.15,
CC(C)CNc1cc(N2CCN(C)CC2)cnn1,,5.00,
CN1CCN(c2ccnc(NC3CCCC3)n2)CC1,7.12,7.20,
CC(C)CNc1nccc(N2CCN(C)CC2)n1,7.08,,
CN[C@H]1CCN(c2ccnc(NC(C)C)n2)C1,,6.93,
CN[C@@H]1CCN(c2cnnc(NCC(C)C)c2)C1,5.50,7.26,
CCCCNc1cc(N2CC[C@H](NC)C2)ccn1,,6.96,
CC(C)Nc1nccc(N2CCN(C)CC2)n1,6.95,6.93,
CN1CCN(c2cnnc(NC3CC4CCC3C4)c2)CC1 (stereo unspecified),,6.44,
CCCCNc1cc(N2CCN(C)CC2)ccn1,,6.75,

# Next, values leading:
pEC50 (Histamine H4 receptor [1]),pKi (Histamine H4 receptor [2]),Kb (Histamine H4 receptor [3]) [nM],Structure (SMILES)
< 5.00,8.10,,CN[C@H]1CCN(c2ccnc(NC3CC4CCC3C4)n2)C1 (stereo partly specified)
5.50,,,CN[C@@H]1CCN(c2ccnc(NC(C)C)c2)C1
,7.01,,CN[C@@H]1CCN(c2ccnc(N3CCCCC3)c2)C1
,8.22,10,CN[C@@H]1CCN(c2cnnc(NC3CCCC3)c2)C1
7.70,,,CN1CCN(c2ccnc(NC3CC4CCC3C4)n2)CC1 (stereo unspecified)
< 5.00,,6.31,CN[C@@H]1CCN(c2ccnc(NC3CC4CCC3C4)c2)C1 (stereo partly specified)
5.50,9.10,79.4,CN[C@@H]1CCN(c2ccnc(NC3CC4CCC3C4)n2)C1 (stereo partly specified)
< 5.00,8.22,,CN[C@H]1CCN(c2ccnc(NC3CC4CCC3C4)c2)C1 (stereo partly specified)
,6.41,,CN[C@H]1CCN(c2cnnc(NCC(C)C)c2)C1
,6.67,,CN[C@@H]1CCN(c2ccnc(-c3ccsc3)c2)C1
8.40,8.52,,CCCCNc1nccc(N2CC[C@@H](NC)C2)n1
7.60,8.10,,CN[C@@H]1CCN(c2ccnc(NC(C)C)n2)C1
,7.68,,CN1CCN(c2ccnc(-c3ccsc3)c2)CC1
,7.92,,CC(C)c1cc(N2CC[C@@H](N)C2)nc(N)n1 [JNJ-39758979]

# — ChEMBL document CHEMBL3393002, “Diaminopyrimidines, diaminopyridines and diaminopyridazines as histamine H4 receptor modulators” (Bioorg Med Chem Lett, 2015)
